Our source for the Activity and fold change (FC) values is ChEMBL document CHEMBL5550132, “Structure-activity relationship in NOD2 agonistic muramyl dipeptides” (Eur J Med Chem, 2024).

The species named for assay [1] is Cavia porcellus. The experiment in a line: Induction of delayed type hypersensitivity in ABA-BSA immunized Hartley Guinea pigs assessed as reduction in skin lesions at 100 ug measured for 48 hrs. It counts as functional. The settings on record: dose 100 µg.
Assay [2] is filed under the species Cavia porcellus. The experiment in a line: Induction of delayed type hypersensitivity in ABA-BSA immunized Hartley Guinea pigs assessed as reduction in skin lesions at 100 ug measured for 24 hrs. The class given is functional. The settings on record: dose 100 µg.
Assay [3] concerns the target Nucleotide-binding oligomerization domain-containing protein 2 (Homo sapiens, UniProt Q9HC29). As to the kind of experiment: Activation of NOD2 in HEK293T cells. The class given is cell-based. The settings on record: filed as activator.
Assay [4] concerns the target Nuclear factor NF-kappa-B complex (Homo sapiens) (UniProt Q00653+P19838+Q04206). The experiment in a line: Activation of NF-KappaB (unknown origin) expressed in HEK293T cells assessed as fold change at 20 uM. It counts as cell-based. As to conditions: filed as activator.

Sequence of Nuclear factor NF-kappa-B complex (Homo sapiens) (P19838 whole entry, looked up): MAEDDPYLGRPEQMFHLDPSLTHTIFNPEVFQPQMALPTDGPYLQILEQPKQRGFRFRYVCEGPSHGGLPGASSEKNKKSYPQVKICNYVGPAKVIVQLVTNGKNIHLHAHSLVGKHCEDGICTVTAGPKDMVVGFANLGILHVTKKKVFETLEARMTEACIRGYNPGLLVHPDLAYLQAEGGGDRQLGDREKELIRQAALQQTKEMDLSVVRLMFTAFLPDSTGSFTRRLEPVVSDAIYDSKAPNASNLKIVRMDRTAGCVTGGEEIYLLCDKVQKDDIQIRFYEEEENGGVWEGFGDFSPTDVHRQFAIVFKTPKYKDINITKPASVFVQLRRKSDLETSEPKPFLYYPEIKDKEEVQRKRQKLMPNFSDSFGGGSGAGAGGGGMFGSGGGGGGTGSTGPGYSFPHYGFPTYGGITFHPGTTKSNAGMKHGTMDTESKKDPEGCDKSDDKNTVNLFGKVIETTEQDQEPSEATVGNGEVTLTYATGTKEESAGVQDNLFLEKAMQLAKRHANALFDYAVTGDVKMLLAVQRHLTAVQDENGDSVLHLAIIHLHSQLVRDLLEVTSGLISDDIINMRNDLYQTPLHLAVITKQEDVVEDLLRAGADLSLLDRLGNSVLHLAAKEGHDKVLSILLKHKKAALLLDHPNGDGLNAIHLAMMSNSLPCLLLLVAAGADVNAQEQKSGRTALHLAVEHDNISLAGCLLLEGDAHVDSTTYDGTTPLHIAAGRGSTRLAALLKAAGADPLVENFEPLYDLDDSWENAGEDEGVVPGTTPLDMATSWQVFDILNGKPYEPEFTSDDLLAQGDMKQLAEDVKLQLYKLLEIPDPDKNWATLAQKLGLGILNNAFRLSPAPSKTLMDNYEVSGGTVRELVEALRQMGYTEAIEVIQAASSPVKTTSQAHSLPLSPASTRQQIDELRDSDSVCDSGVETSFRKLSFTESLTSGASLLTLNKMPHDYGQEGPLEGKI
Sequence of Nuclear factor NF-kappa-B complex (Homo sapiens) (Q00653 whole entry, looked up): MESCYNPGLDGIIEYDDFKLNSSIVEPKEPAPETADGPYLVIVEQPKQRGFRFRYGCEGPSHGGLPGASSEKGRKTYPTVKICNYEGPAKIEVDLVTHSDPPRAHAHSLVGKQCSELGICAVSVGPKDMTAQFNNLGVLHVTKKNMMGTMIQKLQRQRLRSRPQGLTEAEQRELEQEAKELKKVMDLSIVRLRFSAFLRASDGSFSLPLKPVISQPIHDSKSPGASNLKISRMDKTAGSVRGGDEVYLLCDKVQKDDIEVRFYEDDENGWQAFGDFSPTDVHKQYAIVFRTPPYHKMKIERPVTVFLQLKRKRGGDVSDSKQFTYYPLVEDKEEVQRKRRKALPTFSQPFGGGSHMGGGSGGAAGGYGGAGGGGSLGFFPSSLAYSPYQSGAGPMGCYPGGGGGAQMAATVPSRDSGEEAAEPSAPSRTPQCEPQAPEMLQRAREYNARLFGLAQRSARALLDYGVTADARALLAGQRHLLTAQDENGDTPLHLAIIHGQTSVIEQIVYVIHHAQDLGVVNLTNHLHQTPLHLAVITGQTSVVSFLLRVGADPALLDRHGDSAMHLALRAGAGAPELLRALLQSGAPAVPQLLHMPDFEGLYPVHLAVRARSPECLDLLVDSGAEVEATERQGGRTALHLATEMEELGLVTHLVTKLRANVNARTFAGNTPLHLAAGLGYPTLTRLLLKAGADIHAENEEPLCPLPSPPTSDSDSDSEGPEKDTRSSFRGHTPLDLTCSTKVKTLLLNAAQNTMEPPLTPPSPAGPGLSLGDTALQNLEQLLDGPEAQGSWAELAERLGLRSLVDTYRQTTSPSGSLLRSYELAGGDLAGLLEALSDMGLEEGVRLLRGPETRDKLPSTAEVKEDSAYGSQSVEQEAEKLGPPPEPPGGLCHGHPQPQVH
Sequence of Nuclear factor NF-kappa-B complex (Homo sapiens) (Q04206 whole entry, looked up): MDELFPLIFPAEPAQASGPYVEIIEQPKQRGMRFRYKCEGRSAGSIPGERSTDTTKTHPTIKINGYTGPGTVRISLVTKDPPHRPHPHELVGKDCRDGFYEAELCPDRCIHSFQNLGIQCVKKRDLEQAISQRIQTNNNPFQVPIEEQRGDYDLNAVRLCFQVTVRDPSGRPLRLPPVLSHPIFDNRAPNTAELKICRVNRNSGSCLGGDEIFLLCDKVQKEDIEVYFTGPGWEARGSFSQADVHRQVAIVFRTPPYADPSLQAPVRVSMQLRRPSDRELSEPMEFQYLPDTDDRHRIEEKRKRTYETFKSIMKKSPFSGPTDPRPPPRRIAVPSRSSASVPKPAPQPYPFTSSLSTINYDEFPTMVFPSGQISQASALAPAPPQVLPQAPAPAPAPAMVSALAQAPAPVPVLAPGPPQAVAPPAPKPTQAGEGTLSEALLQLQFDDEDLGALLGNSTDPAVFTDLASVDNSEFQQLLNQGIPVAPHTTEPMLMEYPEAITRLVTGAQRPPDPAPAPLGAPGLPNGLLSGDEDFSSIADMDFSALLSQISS
Sequence of Nucleotide-binding oligomerization domain-containing protein 2 (Q9HC29 whole entry, the tested form may be a part): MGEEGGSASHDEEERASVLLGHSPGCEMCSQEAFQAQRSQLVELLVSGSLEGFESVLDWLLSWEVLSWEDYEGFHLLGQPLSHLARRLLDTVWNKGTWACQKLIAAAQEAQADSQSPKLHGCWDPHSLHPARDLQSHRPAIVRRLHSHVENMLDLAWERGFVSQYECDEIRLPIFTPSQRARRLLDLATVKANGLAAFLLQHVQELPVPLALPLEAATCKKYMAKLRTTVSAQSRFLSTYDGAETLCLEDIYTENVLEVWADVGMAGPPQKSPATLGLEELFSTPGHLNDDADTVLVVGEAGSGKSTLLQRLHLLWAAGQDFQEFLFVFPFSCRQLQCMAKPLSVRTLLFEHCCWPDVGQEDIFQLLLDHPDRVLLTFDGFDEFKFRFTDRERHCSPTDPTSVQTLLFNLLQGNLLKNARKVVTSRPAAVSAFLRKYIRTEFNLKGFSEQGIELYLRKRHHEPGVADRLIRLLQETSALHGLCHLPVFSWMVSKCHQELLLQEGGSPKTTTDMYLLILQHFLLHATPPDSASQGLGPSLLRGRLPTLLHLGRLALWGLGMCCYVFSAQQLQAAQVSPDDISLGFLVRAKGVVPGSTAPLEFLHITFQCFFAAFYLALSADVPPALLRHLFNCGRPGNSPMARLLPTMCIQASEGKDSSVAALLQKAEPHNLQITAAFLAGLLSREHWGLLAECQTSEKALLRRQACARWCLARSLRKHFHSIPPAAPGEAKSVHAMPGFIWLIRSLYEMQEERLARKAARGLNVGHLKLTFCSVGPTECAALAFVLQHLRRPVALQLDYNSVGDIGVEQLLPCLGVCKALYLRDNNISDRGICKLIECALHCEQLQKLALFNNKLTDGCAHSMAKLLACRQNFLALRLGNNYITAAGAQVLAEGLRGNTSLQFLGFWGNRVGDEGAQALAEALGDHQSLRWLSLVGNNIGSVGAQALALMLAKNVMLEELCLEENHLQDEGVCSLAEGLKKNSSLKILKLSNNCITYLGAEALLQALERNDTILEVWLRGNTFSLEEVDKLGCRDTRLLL

As to `CC(=O)N[C@@H]1[C@@H](O[C@H](C)C(=O)N[C@H](C(=O)N[C@H](CCC(=O)O)C(N)=O)C(C)C)[C@H](O)[C@@H](CN)O[C@H]1O`, the Activity in the assay filed under Cavia porcellus [1] is reported as 15.3 mm; in the assay filed under Cavia porcellus [2], 20.4 mm.

In assay [3], `CCO[C@@H]1O[C@H](CO)[C@@H](O[C@@H]2O[C@H](CO)[C@@H](O[C@@H]3O[C@H](CO)[C@@H](O[C@@H]4O[C@H](CO)[C@@H](O)[C@H](O[C@H](C)C(=O)N[C@@H](C)C(=O)N[C@H](CCC(=O)N[C@@H](CCCCN)C(=O)N[C@H](C)C(=O)O)C(N)=O)[C@H]4NC(C)=O)[C@H](O)[C@H]3NC(C)=O)[C@H](O)[C@H]2NC(C)=O)[C@H](O[C@H](C)C(=O)N[C@@H](C)C(=O)N[C@H](CCC(=O)N[C@@H](CCCCN)C(=O)N[C@H](C)C(=O)O)C(N)=O)[C@H]1NC(C)=O` had an Activity of 0.09 mU.

Turning to `CC(=O)NC[C@H]1O[C@@H](O)[C@H](NC(C)=O)[C@@H](O[C@H](C)C(=O)N[C@H](C(=O)N[C@H](CCC(=O)O)C(N)=O)C(C)C)[C@@H]1O`, the Activity in the assay listed under Cavia porcellus [1] turned out to be 19.5 mm; in the assay listed under Cavia porcellus [2], 19.1 mm.

For `CCCCCCCCCCCCCCOC(=O)CC[C@@H](NC(=O)[C@H](C)NC(=O)[C@@H](C)O[C@H]1[C@H](O)[C@@H](CO)O[C@@H](OCc2ccccc2)[C@@H]1N=[N+]=[N-])C(N)=O`, the fold change (FC) in assay [4] amounted to 0.04.

For `CCCCCCCCCCCCCCCCCC(=O)NC[C@H]1O[C@@H](O)[C@H](NC(C)=O)[C@@H](O[C@H](C)C(=O)N[C@H](C(=O)N[C@H](CCC(=O)O)C(N)=O)C(C)C)[C@@H]1O`, the figures for the Activity in the assay listed under Cavia porcellus [1] and in the assay filed under Cavia porcellus [2] were 18.5 mm and 22.5 mm, respectively.

In the case of `C[C@H](NC(=O)[C@@H](C)O[C@@H]1[C@@H](N)[C@H](O)O[C@H](CN)[C@H]1O)C(=O)N[C@H](CCC(=O)O)C(N)=O.Cl.Cl`, the results for the Activity in the assay filed under Cavia porcellus [1] and in the assay filed under Cavia porcellus [2] were 5.1 mm and 17.1 mm, respectively.

In turn, `CCO[C@@H]1O[C@H](CO)[C@@H](O[C@@H]2O[C@H](CO)[C@@H](O[C@@H]3O[C@H](CO)[C@@H](O[C@@H]4O[C@H](CO)[C@@H](O)[C@H](O[C@H](C)C(=O)N[C@@H](C)C(=O)N[C@H](CCC(=O)N[C@@H](CCCCN)C(=O)O)C(N)=O)[C@H]4NC(C)=O)[C@H](O)[C@H]3NC(C)=O)[C@H](O[C@H](C)C(=O)N[C@@H](C)C(=O)N[C@H](CCC(=O)N[C@@H](CCCCN)C(=O)O)C(N)=O)[C@H]2NC(C)=O)[C@H](O)[C@H]1NC(C)=O` showed an Activity in assay [3] of 30 mU.

On to `CCO[C@@H]1O[C@H](CO)[C@@H](O[C@@H]2O[C@H](CO)[C@@H](O[C@@H]3O[C@H](CO)[C@@H](O[C@@H]4O[C@H](CO)[C@@H](O)[C@H](O[C@H](C)C(=O)N[C@@H](C)C(=O)N[C@H](CCC(=O)N[C@@H](CCCCN)C(=O)O)C(N)=O)[C@H]4NC(C)=O)[C@H](O)[C@H]3NC(C)=O)[C@H](O)[C@H]2NC(C)=O)[C@H](O[C@H](C)C(=O)N[C@@H](C)C(=O)N[C@H](CCC(=O)N[C@@H](CCCCN)C(=O)O)C(N)=O)[C@H]1NC(C)=O`, for which, in assay [3], the Activity worked out at 0.5 mU.

Turning to `CC(=O)N[C@@H]1[C@@H](O[C@H](C)C(=O)N[C@H](C(=O)N[C@H](CCC(=O)O)C(N)=O)C(C)C)[C@H](O)[C@@H](CO)O[C@H]1O`, the Activity worked out at 24.6 mm in the assay listed under Cavia porcellus [1] and 25.2 mm in the assay filed under Cavia porcellus [2].

Regarding `CCCCCCCCCCCCCCCCCC(=O)NC[C@H]1O[C@@H](O)[C@H](NC(C)=O)[C@@H](O[C@H](C)C(=O)N[C@@H](C)C(=O)N[C@H](CCC(=O)O)C(N)=O)[C@@H]1O`, the Activity in the assay filed under Cavia porcellus [1] is recorded as 15.8 mm; in the assay listed under Cavia porcellus [2], 20.5 mm.

Take `CC(=O)OCC(=O)N[C@@H]1[C@@H](O[C@H](C)C(=O)N[C@@H](C)C(=O)N[C@H](CCC(=O)O)C(N)=O)[C@H](O)[C@@H](CO)O[C@H]1O`: the fold change (FC) in assay [4] was found to be 2.2.

For the compound `COC(=O)CCC(=O)N[C@@H]1[C@@H](O[C@H](C)C(=O)N[C@@H](C)C(=O)N[C@H](CCC(=O)O)C(N)=O)[C@H](O)[C@@H](CO)O[C@H]1O`, the fold change (FC) in assay [4] was found to be 2.4.

As to `CCCCCCCCCCCCCCCCCCCC(=O)NC[C@H]1O[C@@H](O)[C@H](N)[C@@H](O[C@H](C)C(=O)N[C@@H](C)C(=O)N[C@H](CCC(=O)O)C(N)=O)[C@@H]1O.Cl`, the Activity in the assay filed under Cavia porcellus [2] is given as 8 mm.

Take `C[C@H](NC(=O)[C@@H](C)O[C@H]1[C@H](O)[C@@H](CO)O[C@@H](O)[C@@H]1NOC(=O)CCCC[C@@H]1SC[C@@H]2NC(=O)N[C@@H]21)C(=O)N[C@H](CCC(=O)O)C(N)=O`: the fold change (FC) in assay [4] was determined as 2.5.

As to `C[C@H](NC(=O)[C@@H](C)O[C@H]1[C@H](O)[C@@H](CO)O[C@@H](O)[C@@H]1NC(=O)CN=[N+]=[N-])C(=O)N[C@H](CCC(=O)O)C(N)=O`, the fold change (FC) in assay [4] was found to be 1.8.

Turning to `C[C@H](NC(=O)[C@@H](C)O[C@H]1[C@H](O)[C@@H](CO)O[C@@H](OCc2ccccc2)[C@@H]1N=[N+]=[N-])C(=O)N[C@H](CCC(=O)OCc1ccccc1)C(N)=O`, the fold change (FC) in assay [4] was 0.11.

On to `CCCCCCCC(=O)NC[C@H]1O[C@@H](O)[C@H](NC(C)=O)[C@@H](O[C@H](C)C(=O)N[C@@H](C)C(=O)N[C@H](CCC(=O)O)C(N)=O)[C@@H]1O`, for which the Activity in the assay filed under Cavia porcellus [1] is recorded as 8.8 mm; in the assay listed under Cavia porcellus [2], 16.7 mm.

Consider `CCCCCCCCOC(=O)CC[C@@H](NC(=O)[C@H](C)NC(=O)[C@@H](C)O[C@H]1[C@H](O)[C@@H](CO)O[C@@H](OCc2ccccc2)[C@@H]1N=[N+]=[N-])C(N)=O`, for which, in assay [4], the fold change (FC) is 0.04.

Take `C[C@H](NC(=O)[C@@H](C)O[C@H]1[C@H](O)[C@@H](CO)O[C@@H](O)[C@@H]1NC(=O)CCC(=O)O)C(=O)N[C@H](CCC(=O)O)C(N)=O`: in assay [4], the fold change (FC) was determined as 2.3.

`C[C@H](NC(=O)[C@@H](C)O[C@H]1[C@H](O)[C@@H](CO)O[C@@H](OCc2ccccc2)[C@@H]1N=[N+]=[N-])C(=O)N[C@H](CCC(=O)O)C(N)=O`: the fold change (FC) in assay [4] is 0.08.

Take `CC(=O)N[C@@H]1[C@@H](O[C@H](C)C(=O)N[C@@H](CO)C(=O)N[C@H](CCC(=O)O)C(N)=O)[C@H](O)[C@@H](CO)O[C@H]1O`: the Activity in the assay listed under Cavia porcellus [1] is reported as 21.6 mm; in the assay listed under Cavia porcellus [2], 23.1 mm.

With `C[C@H](NC(=O)[C@@H](C)O[C@@H]1[C@@H](N)[C@H](O)O[C@H](CN)[C@H]1O)C(=O)N[C@H](CCC(=O)O)C(N)=O`, the Activity in the assay filed under Cavia porcellus [1] was determined as 9.3 mm; in the assay filed under Cavia porcellus [2], 15.1 mm.

On to `CC(=O)N[C@@H]1[C@@H](O[C@H](C)C(=O)N[C@@H](CO)C(=O)N[C@H](CCC(=O)O)C(N)=O)[C@H](O)[C@@H](CN)O[C@H]1O`, for which the values for the Activity in the assay filed under Cavia porcellus [1] and in the assay listed under Cavia porcellus [2] were 22.3 mm and 21.6 mm, respectively.

As for `C[C@H](NC(=O)[C@@H](C)O[C@H]1[C@H](O)[C@@H](CO)O[C@@H](O)[C@@H]1NC(=O)C(F)(F)F)C(=O)N[C@H](CCC(=O)O)C(N)=O`, the fold change (FC) in assay [4] amounted to 1.9.

`CC(=O)NC[C@H]1O[C@@H](O)[C@H](NC(C)=O)[C@@H](O[C@H](C)C(=O)N[C@@H](CO)C(=O)N[C@H](CCC(=O)O)C(N)=O)[C@@H]1O`: the Activity is 19.6 mm in the assay filed under Cavia porcellus [1] and 20.4 mm in the assay filed under Cavia porcellus [2].

On to `CCCCCCCCCCCCCCCCCC(=O)N[C@@H]1[C@@H](O[C@H](C)C(=O)N[C@H](C(=O)N[C@H](CCC(=O)O)C(N)=O)C(C)C)[C@H](O)[C@@H](CN)O[C@H]1O`, for which the Activity in the assay listed under Cavia porcellus [2] was 10.5 mm.

Consider `CC(=O)NC[C@H]1O[C@@H](O)[C@H](NC(C)=O)[C@@H](O[C@H](C)C(=O)N[C@@H](C)C(=O)N[C@H](CCC(=O)O)C(N)=O)[C@@H]1O`, for which the Activity in the assay filed under Cavia porcellus [1] amounted to 16.7 mm; in the assay listed under Cavia porcellus [2], 21.4 mm.
